Each block holds one compound with its values, some of them ahead of it. Calls of active or inactive are those of the source. Rule as the data show it, for most assays here: actives have a measured AC50 and inactives only a lower limit.
Key:
[1] = molecular target: Potassium channel subfamily K member 3 (Homo sapiens, UniProt O14649); test: TASK1 (KCNK3) potassium channel inhibitors, SAR follow-up, CHO cells, FluxOR thallium flux (AID 652212); type: functional
[2] = endogenous miR-122 level reduction, dose response, orthogonal assay for miR-122 inhibitor project, cell-based, Huh7, RT-qPCR, dry powder (AID 687041); type: functional
[3] = molecular target: NAD-dependent protein deacylase sirtuin-5, mitochondrial (Homo sapiens, UniProt Q9NXA8); test: SIRT5 desuccinylase inhibitors, dose response, biochemical, fluorescence imaging, cherry-pick, set 5 (AID 720591);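 also: desuccinylation of succinyl peptide AMC substrate read as fluorescence after trypsin release; potency of inhibitors that lower fluorescence and may act on trypsin instead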
Chain of NAD-dependent protein deacylase sirtuin-5, mitochondrial (Q9NXA8 whole entry, the tested form may be a part): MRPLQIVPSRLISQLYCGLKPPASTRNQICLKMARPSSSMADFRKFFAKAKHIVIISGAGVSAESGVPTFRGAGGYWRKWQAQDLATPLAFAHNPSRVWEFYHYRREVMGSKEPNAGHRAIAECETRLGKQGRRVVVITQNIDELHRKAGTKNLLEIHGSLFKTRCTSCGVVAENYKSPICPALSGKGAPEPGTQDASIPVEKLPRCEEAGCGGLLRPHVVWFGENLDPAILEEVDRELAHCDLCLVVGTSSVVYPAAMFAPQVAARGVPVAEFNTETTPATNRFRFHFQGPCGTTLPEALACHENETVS

[4] = molecular target: E3 ubiquitin-protein ligase UHRF1 (Homo sapiens, UniProt Q96T88); test: Counterscreen for inhibitors of 5-meCpG-binding domain protein 2 (MBD2): TRFRET-based biochemical high throughput dose response assay to identify inhibitors of binding of ubiquitin-like with PHD and ring finger domains 1 (UHRF1) to methylated oligonucleotide.
Chain of E3 ubiquitin-protein ligase UHRF1 (Q96T88 whole entry, the tested form may be a part): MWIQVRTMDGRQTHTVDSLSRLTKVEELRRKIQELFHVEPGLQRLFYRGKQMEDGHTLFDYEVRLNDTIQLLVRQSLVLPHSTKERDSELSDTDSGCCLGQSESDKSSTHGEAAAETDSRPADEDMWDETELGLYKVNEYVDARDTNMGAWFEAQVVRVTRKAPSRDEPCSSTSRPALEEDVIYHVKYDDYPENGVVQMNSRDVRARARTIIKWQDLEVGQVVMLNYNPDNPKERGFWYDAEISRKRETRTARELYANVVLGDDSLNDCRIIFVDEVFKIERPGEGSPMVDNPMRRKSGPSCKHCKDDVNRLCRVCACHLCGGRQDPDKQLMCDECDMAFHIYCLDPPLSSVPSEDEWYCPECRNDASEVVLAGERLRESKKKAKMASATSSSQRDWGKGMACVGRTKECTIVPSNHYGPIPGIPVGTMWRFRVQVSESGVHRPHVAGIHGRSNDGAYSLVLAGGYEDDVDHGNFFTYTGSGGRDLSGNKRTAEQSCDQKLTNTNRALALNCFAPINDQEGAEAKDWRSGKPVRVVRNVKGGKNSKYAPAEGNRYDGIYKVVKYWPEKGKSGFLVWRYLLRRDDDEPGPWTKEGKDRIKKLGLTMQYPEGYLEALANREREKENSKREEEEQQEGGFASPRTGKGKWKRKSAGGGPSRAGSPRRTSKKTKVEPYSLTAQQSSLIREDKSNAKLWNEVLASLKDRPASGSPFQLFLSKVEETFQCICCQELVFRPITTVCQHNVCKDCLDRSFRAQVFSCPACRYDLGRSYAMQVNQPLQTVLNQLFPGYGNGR

HEK293 = test: HEK293T cell cytotoxicity, dose response, cytotoxicity control, ATP luminescence, cherry-pick samples (AID 687005); type: functional, cell-based; settings: Homo sapiens;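 also: cells exposed to compound for 48 hours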
[5] = HEK293 Cytotoxicity Assay Measured in Cell-Based System Using Plate Reader - 7071-01_Inhibitor_Dose_CherryPick_Activity_Set2.; type: functional
cells = settings: HEK293;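 also: cells exposed to compound for 48 hours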
[6] = cytotoxicity in COV434 cells, dose response, cytotoxicity control for PAX8 inhibitor project, cell-based, plate reader, dry powder, SA7 (AID 743145); type: functional
Paired box protein Pax-8 = Paired box protein Pax-8 (Homo sapiens, UniProt Q06710); test: inhibitors of PAX8-driven TPO luciferase reporter, dose response, RMG-I cells, cherry-pick (AID 687027); type: functional, cell-based;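 also: luciferase reporter driven by Pax8 target thyroperoxidase promoter measured by SteadyGlo luminescence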
Chain of Paired box protein Pax-8 (Q06710 whole entry): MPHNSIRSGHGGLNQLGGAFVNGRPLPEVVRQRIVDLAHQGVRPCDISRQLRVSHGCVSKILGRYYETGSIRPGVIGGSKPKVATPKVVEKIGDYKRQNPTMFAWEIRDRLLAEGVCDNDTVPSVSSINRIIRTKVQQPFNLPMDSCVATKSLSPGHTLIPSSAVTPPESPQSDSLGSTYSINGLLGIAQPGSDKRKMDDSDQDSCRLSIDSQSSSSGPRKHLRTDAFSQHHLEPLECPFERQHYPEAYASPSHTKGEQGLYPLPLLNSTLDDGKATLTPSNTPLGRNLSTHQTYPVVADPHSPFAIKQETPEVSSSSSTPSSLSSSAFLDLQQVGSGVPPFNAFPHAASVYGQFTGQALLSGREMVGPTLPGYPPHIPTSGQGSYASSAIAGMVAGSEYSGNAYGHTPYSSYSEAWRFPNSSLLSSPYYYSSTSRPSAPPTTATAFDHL

[7] = PAX2 cell-based inhibition, dose response, selectivity assay for PAX8 inhibitor project, plate reader, dry powder samples (AID 743048); type: functional;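 also: HEK293 cells carrying a WT1 promoter luciferase reporter driven by expressed Pax2; potency is for inhibition of Pax2 driven reporter signal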
[8] = PAX5 activity inhibitors, dose response, selectivity assay for PAX8 inhibitor project, cell-based, plate reader, dry powder samples (AID 743047); type: functional;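 also: HEK293 cells carrying a Pax5 driven CD19 promoter luciferase reporter; potency of inhibitors that lower reporter luminescence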
[9] = cytotoxicity dependent on PAX8, dose response, cell-based, plate reader, dry powder (AID 743049); type: functional

Chain of Potassium channel subfamily K member 3 (O14649 whole entry): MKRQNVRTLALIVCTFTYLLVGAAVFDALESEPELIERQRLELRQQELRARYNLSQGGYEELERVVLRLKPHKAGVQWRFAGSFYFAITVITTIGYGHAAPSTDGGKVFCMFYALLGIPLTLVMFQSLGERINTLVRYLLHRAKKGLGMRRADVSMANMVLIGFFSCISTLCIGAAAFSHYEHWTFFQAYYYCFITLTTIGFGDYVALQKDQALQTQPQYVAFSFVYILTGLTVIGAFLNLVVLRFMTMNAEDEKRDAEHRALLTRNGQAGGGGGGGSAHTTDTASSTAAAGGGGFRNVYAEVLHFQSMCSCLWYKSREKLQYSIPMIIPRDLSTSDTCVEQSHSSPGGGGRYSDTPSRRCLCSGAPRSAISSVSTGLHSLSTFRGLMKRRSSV

IC50 [1]: 1.14 µM (active)
SMILES: Cc1cccc(C(=O)Nc2cccc(C(=O)Nc3ccccc3)c2)c1

SMILES: S=C(Nc1ccc(Cl)cc1Cl)NC1CCCCC1
AC50 [2]: 2.25 µM (active)

AC50 [3]: > 30 µM (inactive)
SMILES: CCOC(=O)C1=C[C@@H](c2ccccc2)N(S(=O)(=O)c2ccc(C)cc2)[C@H]1c1ccccc1Cl

IC50 [4]: > 43.7 µM (inactive)
SMILES: CCCCn1nnnc1C1(C)CCC(=O)N1CCCn1ccnc1 (configuration not stated)

SMILES: CCOC(=O)CNC(=O)CSc1ncnc2c1cnn2-c1ccc(OC)cc1
AC50 (HEK293): 34.4 µM (active)
AC50 [5]: 34.4 µM (active)

SMILES: CC(=O)Oc1ccc(C(=O)Nc2cc(C)on2)cc1
AC50 (cells): > 52 µM (inactive)

SMILES: C[C@@H]1CN([C@H](C)CO)C(=O)CCCn2nncc2CO[C@H]1CN(C)Cc1ccc(Oc2ccccc2)cc1
AC50 [6]: 0.24 nM (active)
AC50 (Paired box protein Pax-8): 22.1 µM (active)
AC50 [7]: 47.9 µM (active)
AC50 [8]: > 70 µM (inactive)
AC50 [9]: > 70 µM (inactive)

— ChEMBL document CHEMBL1201862, “PubChem BioAssay data set” (2004)
